The values below come from patent publication US11780839B2, “Compounds for treating Huntington's disease” (PTC THERAPEUTICS, INC., priority 2018, dated 2023).

This test has as its system Endogenous Huntingtin Protein. Description: Endogenous Huntingtin Protein Assay (ELISA-based Meso Scale Discovery electrochemiluminescence). To be noted: MSD electrochemiluminescence, Table 1. The test is classed as cell-based. The gist of the method: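 Sandwich MSD electrochemiluminescence immunoassay. Capture used MW1 (expanded polyglutamine) or MAB2166 antibody coated at 1 μg/mL overnight at 4 °C. Samples were bound overnight at 4 °C, then a rabbit monoclonal detection antibody and SULFO-TAG anti-rabbit, each at 0.25 μg/mL, were applied for 1 h at room temperature.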
For orientation: In an ELISA, binding on a coated surface is turned into a signal by an enzyme label.
The IC50 is the point on the concentration scale where inhibition reaches its midpoint. Low readings indicate greater potency in that assay, high ones weaker potency in that assay. Turning to `Cc1cn(-c2ccc(-c3cnc(NC4CC(C)(C)NC(C)(C)C4)nn3)c(O)c2)cn1` [Cpd 274, 5-(4-methyl-1H-imidazol-1-yl)-2-{3-[(2,2,6,6-tetramethylpiperidin-4-yl)amino]-1,2,4-triazin-6-yl}phenol], the half-inhibitory concentration (IC50) is ≤ 100 nM. The result for `CC(C)NC1CCN(c2ncc(-c3ccc(-c4cnn(C)n4)cc3O)nn2)C1` (stereo not drawn) [Cpd 236, 5-(2-methyl-2H-1,2,3-triazol-4-yl)-2-(3-{3-[(propan-2-yl)amino]pyrrolidin-1-yl}-1,2,4-triazin-6-yl)phenol] reads ≤ 100 nM; that for `Oc1cc(-c2cn[nH]c2)ccc1-c1cnc(N2CCNCC2)nn1` [Cpd 328, 2-[3-(piperazin-1-yl)-1,2,4-triazin-6-yl]-5-(1H-pyrazol-4-yl)phenol], 100 to 500 nM; that for `Cc1nsc(-c2ccc(-c3cnc(N(C)C4CC(C)(C)NC(C)(C)C4)nn3)c(O)c2)n1` [Cpd 66, 2-{3-[methyl(2,2,6,6-tetramethylpiperidin-4-yl)amino]-1,2,4-triazin-6-yl}-5-(3-methyl-1,2,4-thiadiazol-5-yl)phenol], ≤ 100 nM. The result for `COc1cc(-c2ccc(-c3cnc(N(C)C4CC(C)(C)NC(C)(C)C4)nn3)c(O)c2)ccn1` [Cpd 3, 5-(2-methoxypyridin-4-yl)-2-{3-[methyl(2,2,6,6-tetramethylpiperidin-4-yl)amino]-1,2,4-triazin-6-yl}phenol] reads ≤ 100 nM. Under `CN(c1cnc(-c2ccc(-c3ccncc3)cc2O)nn1)C1CC(C)(C)NC(C)(C)C1` [Cpd 382, 2-{6-[methyl(2,2,6,6-tetramethylpiperidin-4-yl)amino]-1,2,4-triazin-3-yl}-5-(pyridin-4-yl)phenol] stands ≤ 100 nM; under `Oc1cc(-c2cn[nH]c2)ccc1-c1cnc(N2CCC(CNC3CCOCC3F)C2)nn1` (stereo not drawn) [Cpd 403, 2-[3-(3-{[(3-fluorooxan-4-yl)amino]methyl}pyrrolidin-1-yl)-1,2,4-triazin-6-yl]-5-(1H-pyrazol-4-yl)phenol], ≤ 100 nM. As to `CC1CN(c2ncc(-c3ccc(-c4ccn(C)n4)cc3O)nn2)CC(C)N1` (stereo not drawn) [Cpd 263, 2-[3-(3,5-dimethylpiperazin-1-yl)-1,2,4-triazin-6-yl]-5-(1-methyl-1H-pyrazol-3-yl)phenol], the IC50 fell in the range of 100 to 500 nM. Under `CN1CCC2(CC1)CN(c1ncc(-c3ccc(-n4nccn4)cc3O)nn1)C2` [Cpd 232, 2-[3-(7-methyl-2,7-diazaspiro[3.5]nonan-2-yl)-1,2,4-triazin-6-yl]-5-(2H-1,2,3-triazol-2-yl)phenol] stands ≤ 100 nM; under `CC(C)NC1CCN(c2ncc(-c3ccc(-c4cnc5c(cnn5C)c4)cc3O)nn2)C1` (stereo not drawn) [Cpd 307, 5-(1-methyl-1H-pyrazolo[3,4-b]pyridin-5-yl)-2-(3-{3-[(propan-2-yl)amino]pyrrolidin-1-yl}-1,2,4-triazin-6-yl)phenol], > 500 nM; under `Oc1cc(-c2cn[nH]c2)ccc1-c1cnc(NC2C[C@H]3CC[C@@H](C2)N3)nn1` (stereo partly drawn) [Cpd 78], ≤ 100 nM.

As to `CCNC1CCN(c2ncc(-c3ccc(-c4cn[nH]c4)cc3O)nn2)C1` (stereo not drawn) [Cpd 317, 2-{3-[3-(ethylamino)pyrrolidin-1-yl]-1,2,4-triazin-6-yl}-5-(1H-pyrazol-4-yl)phenol], the IC50 is ≤ 100 nM. The result for `CN1CCC2(CC1)CN(c1ncc(-c3ccc(-c4nnn(C)n4)cc3O)nn1)C2` [Cpd 251, 2-[3-(7-methyl-2,7-diazaspiro[3.5]nonan-2-yl)-1,2,4-triazin-6-yl]-5-(2-methyl-2H-tetrazol-5-yl)phenol] reads 100 to 500 nM; that for `CN(c1ncc(-c2ccc(-c3cn4ccnc4cn3)cc2O)nn1)C1CC(C)(C)NC(C)(C)C1` [Cpd 80, 5-(imidazo[1,2-a]pyrazin-6-yl)-2-{3-[methyl(2,2,6,6-tetramethylpiperidin-4-yl)amino]-1,2,4-triazin-6-yl}phenol], ≤ 100 nM. In the case of `CC(C)N[C@H]1CCN(c2ncc(-c3ccc(-c4cn[nH]c4)cc3O)nn2)C1` [Cpd 347, 2-(3-{(3S)-3-[(propan-2-yl)amino]pyrrolidin-1-yl}-1,2,4-triazin-6-yl)-5-(1H-pyrazol-4-yl)phenol], the IC50 was ≤ 100 nM.

As for `CN(c1ncc(-c2ccc(-c3ccc4c(c3)OCO4)cc2O)nn1)C1CC(C)(C)NC(C)(C)C1` [Cpd 188, 5-(2H-1,3-benzodioxo1-5-yl)-2-{3-[methyl(2,2,6,6-tetramethylpiperidin-4-yl)amino]-1,2,4-triazin-6-yl}phenol], the IC50 is ≤ 100 nM.

Take `CC(C)NC(C)C1CCN(c2ncc(-c3ccc(-c4cn[nH]c4)cc3O)nn2)C1` (stereo not drawn) [Cpd 414, 2-[3-(3-{1-[(propan-2-yl)amino]ethyl}pyrrolidin-1-yl)-1,2,4-triazin-6-yl]-5-(1H-pyrazol-4-yl)phenol]: the IC50 was ≤ 100 nM. Under `CN(c1ncc(-c2ccc(-n3cc(CO)cn3)cc2O)nn1)C1CC(C)(C)NC(C)(C)C1` [Cpd 161, 5-[4-(hydroxymethyl)-1H-pyrazol-1-yl]-2-{3-[methyl(2,2,6,6-tetramethylpiperidin-4-yl)amino]-1,2,4-triazin-6-yl}phenol] stands ≤ 100 nM; under `CN(c1ncc(-c2ccc(-c3cc(=O)n(C)cn3)cc2O)nn1)C1CC(C)(C)NC(C)(C)C1` [Cpd 146, 6-(3-hydroxy-4-{3-[methyl(2,2,6,6-tetramethylpiperidin-4-yl)amino]-1,2,4-triazin-6-yl}phenyl)-3-methylpyrimidin-4(3H)-one], ≤ 100 nM; under `CO[C@H]1[C@@H](Nc2ncc(-c3ccc(-c4cn[nH]c4)cc3O)nn2)CC(C)(C)NC1(C)C` [Cpd 286, 2-(3-{[(3S,4S)-3-methoxy-2,2,6,6-tetramethylpiperidin-4-yl]amino}-1,2,4-triazin-6-yl)-5-(1H-pyrazol-4-yl)phenol], 100 to 500 nM. The result for `CN1CC[C@H](Oc2ncc(-c3ccc(-c4cn[nH]c4)cc3O)nn2)C1` [Cpd 309, 2-(3-{[(3S)-1-methylpyrrolidin-3-yl]oxy}-1,2,4-triazin-6-yl)-5-(1H-pyrazol-4-yl)phenol] reads > 500 nM; that for `CN(c1ncc(-c2ccc(-c3ncns3)cc2O)nn1)C1CC(C)(C)NC(C)(C)C1` [Cpd 65, 2-{3-[methyl(2,2,6,6-tetramethylpiperidin-4-yl)amino]-1,2,4-triazin-6-yl}-5-(1,2,4-thiadiazol-5-yl)phenol], ≤ 100 nM. Molecule `CN1CCC2(CC1)CN(c1ncc(-c3ccc(-c4ncccn4)cc3O)nn1)C2` [Cpd 244, 2-[3-(7-methyl-2,7-diazaspiro[3.5]nonan-2-yl)-1,2,4-triazin-6-yl]-5-(pyrimidin-2-yl)phenol] showed an IC50 of 3000 to 9000 nM. Under `CC1(NC2CCN(c3ncc(-c4ccc(-c5cn[nH]c5)cc4O)nn3)C2)COC1` (stereo not drawn) [Cpd 325] stands 100 to 500 nM. Under `CN(c1ncc(-c2ccc(-c3ccc(Cl)nn3)cc2O)nn1)C1CC(C)(C)NC(C)(C)C1` [Cpd 123, 5-(6-chloropyridazin-3-yl)-2-{3-[methyl(2,2,6,6-tetramethylpiperidin-4-yl)amino]-1,2,4-triazin-6-yl}phenol] stands ≤ 100 nM; under `Oc1cc(-c2c[nH]nc2F)ccc1-c1cnc(N2CC[C@H]3NCC[C@H]3C2)nn1` [Cpd 150, 5-(3-fluoro-1H-pyrazol-4-yl)-2-{3-[(3aS,7aR)-octahydro-5H-pyrrolo[3,2-c]pyridin-5-yl]-1,2,4-triazin-6-yl}phenol], ≤ 100 nM. The result for `Cn1cnc(-c2ccc(-c3cnc(N[C@H]4CC(C)(C)NC(C)(C)[C@H]4F)nn3)c(O)c2)cc1=O` [Cpd 246, 6-[4-(3-{[(3S,4S)-3-fluoro-2,2,6,6-tetramethylpiperidin-4-yl]amino}-1,2,4-triazin-6-yl)-3-hydroxyphenyl]-3-methylpyrimidin-4(3H)-one] reads ≤ 100 nM.

With `Oc1cc(-c2cn[nH]c2)ccc1-c1cnc(N2CCC(NC34CC(C3)C4)C2)nn1` (stereo not drawn) [Cpd 349, 2-(3-{3-[(bicyclo[1.1.1]pentan-1-yl)amino]pyrrolidin-l-yl}-1,2,4-triazin-6-yl)-5-(1H-pyrazol-4-yl)phenol], the IC50 lay in the range of 100 to 500 nM.

Regarding `CC1(C)CC(Nc2ncc(-c3ccc(-c4ncco4)cc3O)nn2)CC(C)(C)N1` [Cpd 352, 5-(1,3-oxazol-2-yl)-2-{3-[(2,2,6,6-tetramethylpiperidin-4-yl)amino]-1,2,4-triazin-6-yl}phenol], the IC50 was ≤ 100 nM. Under `C[C@@H]1CN(c2ncc(-c3ccc(-c4ccc5nccn5n4)cc3O)nn2)C[C@H](C)N1` [Cpd 385, 2-{3-[(3R,5S)-3,5-dimethylpiperazin-1-yl]-1,2,4-triazin-6-yl}-5-(imidazo[1,2-b]pyridazin-6-yl)phenol] stands ≤ 100 nM; under `CN1CCC2(CC1)CN(c1ncc(-c3ccc(-c4ccc5c(cnn5C)c4)cc3O)nn1)C2` [Cpd 223], 100 to 500 nM; under `CC(C)NC1CCN(c2ncc(-c3ccc(-c4ccc5c(cnn5C)c4)cc3O)nn2)C1` (stereo not drawn) [Cpd 330, 5-(1-methyl-1H-indazol-5-yl)-2-(3-{3-[(propan-2-yl)amino]pyrrolidin-1-yl}-1,2,4-triazin-6-yl)phenol], 1000 to 3000 nM. Under `CC1CN(c2ncc(-c3ccc(-c4cn[nH]c4)cc3O)nn2)CC(C)N1` (stereo not drawn) [Cpd 262, 2-[3-(3,5-dimethylpiperazin-1-yl)-1,2,4-triazin-6-yl]-5-(1H-pyrazol-4-yl)phenol] stands ≤ 100 nM; under `CC(C)(C)NC1CCN(c2ncc(-c3ccc(-c4ncccn4)cc3O)nn2)C1` (stereo not drawn) [Cpd 209, 2-{3-[3-(tert-butylamino)pyrrolidin-l-yl]-1,2,4-triazin-6-yl}-5-(pyrimidin-2-yl)phenol], 1000 to 3000 nM; under `Oc1cc(-c2cn[nH]c2)ccc1-c1cnc(N2CC3(CNC3)C2)nn1` [Cpd 118, 2-[3-(2,6-diazaspiro[3.3]heptan-2-yl)-1,2,4-triazin-6-yl]-5-(1H-pyrazol-4-yl)phenol], 100 to 500 nM. In turn, `CN(C)C1CCN(c2ncc(-c3ccc(-c4cn[nH]c4)cc3O)nn2)C1` (stereo not drawn) [Cpd 318, 2-{3-[3-(dimethylamino)pyrrolidin-1-yl]-1,2,4-triazin-6-yl}-5-(1H-pyrazol-4-yl)phenol] came in with an IC50 of 100 to 500 nM.
